These results are taken from ChEMBL document CHEMBL1146807, “A new family of quinoline and quinoxaline analogues of combretastatins” (Bioorg Med Chem Lett, 2004).

pIC50: −log10 of the molar value. Activity calls are given as the source filed them. The calls are words filed in the database; no cut-off is given here. Bounds are passed on as bounds.

In one test the test system is HCT-116. Kind of test: Cytotoxic activity against H116 cell line. It counts as functional, cell-based. The conditions noted are these: Homo sapiens.
Another test concerns P388. Description: Cytotoxic activity against P-388 cell line. The test is classed as functional, cell-based. To be noted: Mus musculus.
A further test concerns A549. Description: Cytotoxic activity against A-549 cell line. To be noted: Homo sapiens. The test is classed as functional, cell-based.
The subject of a further test is HT-29. Kind of test: Cytotoxic activity against HT-29 cell line. It counts as functional, cell-based. The conditions noted are these: Homo sapiens.
Another test has as its system SK-MEL-28. Kind of test: Cytotoxic activity against MEL-28 cell line. The test is classed as functional, cell-based. To be noted: Homo sapiens.
Test [1] in a line: Compound tested for inhibition of tubulin polymerization at 60 uM; No inhibition. It counts as functional.
A short description of test [2]: Compound tested for inhibition of tubulin polymerization. The test is classed as functional.

With `COc1ccc(/C=C\c2cc(OC)c(OC)c(OC)c2)cc1O` [COMBRETASTATIN A4], the pIC50 (commonly −log10 of the IC50, conventionally taken in molar units) in the test on HCT-116 is 8.50.
With `COc1cc(/C=C\c2cnc3ccccc3c2)cc(OC)c1OC`, the negative-log IC50 (pIC50) in the test with HCT-116, in the test on P388, with A549, in the test on HT-29 and with SK-MEL-28 was 6.40 in each case.
As for `COc1cc(/C=C\c2ccc3nc(C)c(C)nc3c2)cc(OC)c1OC`, the negative logarithm of the IC50 (pIC50) in the test on HCT-116, in the test with P388, in the test with A549, with HT-29 and in the test on SK-MEL-28 was under 4.80 each time. Besides, in test [1], the inhibition entry is “inactive”.
Turning to `COc1cc(/C=C/c2ccc3nccnc3c2)cc(OC)c1OC`, the pIC50 in the test on HCT-116, in the test on P388, with A549, with HT-29 and in the test with SK-MEL-28 was under 4.80 each time.
For the compound `COc1cc(/C=C/c2cnc3ccccc3c2)cc(OC)c1OC`, the negative-log IC50 (pIC50) in the test with HCT-116, in the test with P388, in the test with A549, in the test on HT-29 and in the test on SK-MEL-28 was under 5.50 throughout.
For the compound `COc1cc(/C=C\c2ccc3nccnc3c2)cc(OC)c1OC`, the pIC50 with HCT-116, with P388, with A549, in the test on HT-29 and in the test on SK-MEL-28 was 5.10 in each case. For the same compound, the inhibition result in test [1] was “inactive”.
`COc1cc(/C=C\c2ccnc3ccccc23)cc(OC)c1OC`: the negative-log IC50 (pIC50) is 5.10 in the test with HCT-116; 5.10 with P388; 5.10 in the test on A549; 4.80 in the test on HT-29; 5.10 with SK-MEL-28.
On to `COc1cc(/C=C\c2ccc3ncccc3c2)cc(OC)c1OC`, for which the pIC50 with HCT-116, in the test on P388, with A549, in the test with HT-29 and in the test with SK-MEL-28 was 7.50 throughout.
Regarding `COc1cc(/C=C/c2ccc3nc(C)c(C)nc3c2)cc(OC)c1OC`, the negative-log IC50 (pIC50) in the test on HCT-116, with P388, in the test with A549, in the test with HT-29 and in the test on SK-MEL-28 was under 4.80 in each case.
Consider `COc1cc(/C=C/c2ccc3cccnc3c2)cc(OC)c1OC`, for which the pIC50 with HCT-116, with P388, with A549, in the test on HT-29 and in the test on SK-MEL-28 was 5.80 each time.
Take `COc1cc(/C=C\c2ccc3cccnc3c2)cc(OC)c1OC`: the negative logarithm of the IC50 (pIC50) in the test with HCT-116 was 6.80; in the test on P388 it was 6.80; in the test with A549, 6.80; in test [2], 4.70; with HT-29, 6.80; in the test on SK-MEL-28 it was 6.80.
Take `COc1cc(/C=C\c2ccc3ccccc3c2)cc(OC)c1OC` [NAPHTHYLCOMBRETASTATIN]: in the test with HCT-116, the pIC50 is 7.80.
For the compound `COc1cc(/C=C\c2ccc3ccccc3n2)cc(OC)c1OC`, the pIC50 with HCT-116, with P388, with A549, in the test with HT-29 and in the test on SK-MEL-28 was 6.50 throughout.
As to `COc1cc(/C=C/c2ccc3ccccc3n2)cc(OC)c1OC`, the pIC50 in the test on HCT-116, in the test on P388, in the test with A549, with HT-29 and in the test on SK-MEL-28 was 6.40 in each case.
